Laboratory results from patent US8895585B2, “Nicotinamide derivative or salt thereof” (FUJIFILM Corporation, priority 2010, dated 2014).

Assays:
THP-1 cells = assay: TNFα generation assay; type: cell-based, human; conditions: Homo sapiens, THP-1, THP-1 cells; Table 22; read-out: IC50 in TNFα generation assay
Method in brief: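 THP-1 cells differentiated to macrophage-like cells with 10 ng/ml IFN-γ for 2 days, preincubated with compound 30 min at room temperature, then cultured 7 h on plates coated with human IgG (10 μg/ml). Secreted TNFα measured by ELISA or AlphaLISA.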

[1] = molecular target: T1, glutathione S-transferase (GST)-fused full-length human Syk protein (Homo sapiens, UniProt P43405); assay: Syk enzyme assay; type: biochemical; conditions: Syk enzyme assay, Test Example 1; read-out: IC50 of Syk-inhibitory activity
T1 construct: (GST)-fused full-length human Syk protein; GST (glutathione S-transferase); purchased Carna Biosciences
Method in brief: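 GST-tagged full-length human Syk (baculovirus) preincubated with compound 15 min at room temperature (pH 7.0, 10 mM MgCl2), then reacted 40 min with 0.4 μM biotinylated peptide substrate and 27 μM ATP (final). Phosphorylation read by HTRF (615/665 nm) after EDTA stop; IC50 reported.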

Compound	IC50 (THP-1 cells) [nM]	IC50 [1] [nM]
CC(C)CC(Nc1nc(Nc2ccc3ncccc3c2)c(C(N)=O)cc1F)[C@H](C)N (stereo partly drawn) [Example 006-159, 6-(((2S)-2-amino-5-methylhexan-3-yl)amino)-5-fluoro-2-(quinolin-6-ylamino)nicotinamide]	130 to 200	< 10
NC(=O)c1cc(F)c(N[C@@H]2CCCC[C@@H]2N)nc1Nc1cncc(-c2ccc3c(c2)OCCO3)c1 (relative stereo) [Example 004-056]	130 to 200	< 10
NC(=O)c1cc(F)c(N[C@@H]2CCCC[C@@H]2N)nc1Nc1ccnc2c1ccn2CC1CC1 [Example 004-040]	130 to 200	< 10
CC[C@@H](Nc1nc(Nc2cncc(-c3ccc(OC)cc3)c2)c(C(N)=O)cc1F)[C@H](C)N [Example 006-277, 6-(((2S,3R)-2-aminopentan-3-yl)amino)-5-fluoro-2-((5-(4-methoxyphenyl)pyridin-3-yl)amino)nicotinamide]	65 to 130	< 10
Cc1nn(CCF)c2ccc(Nc3nc(NC4CCCCC4N)c(F)cc3C(N)=O)cc12 (centres unmarked) [Example 002-209]	65 to 130	< 10
CN(C)c1cccc2cc(Nc3nc(N[C@@H]4CCCC[C@@H]4N)c(F)cc3C(N)=O)cnc12 [Example 004-032]	130 to 200	< 10
CC[C@@H](Nc1nc(Nc2cnc3ccc(OC)cc3c2)c(C(N)=O)cc1F)[C@H](C)N [Example 006-264, 6-(((2S,3R)-2-aminopentan-3-yl)amino)-5-fluoro-2-((6-methoxyquinolin-3-yl)amino)nicotinamide]	< 65	< 10
CCn1nc(C)c2cc(Nc3nc(N[C@H](CC(C)C)[C@H](C)N)c(F)cc3C(N)=O)ccc21 [Example 006-521, 6-(((2S,3R)-2-amino-5-methylhexan-3-yl)amino)-2-((1-ethyl-3-methyl-1H-indazol-5-yl)amino)-5-fluoronicotinamide]	65 to 130	< 10
N#Cc1ccc(-c2cncc(Nc3nc(NC4CCCCC4N)c(F)cc3C(N)=O)c2)cc1 (centres unmarked) [Example 002-173]	130 to 200	10 to 50
NC(=O)c1cc(F)c(N[C@@H]2CCCC[C@@H]2N)nc1Nc1cncc(C(=O)Nc2ccccc2)c1 [Example 004-011]	130 to 200	10 to 50
COc1cc(Nc2nc(N[C@H](c3ccc(F)cc3)[C@H](C)N)c(F)cc2C(N)=O)cc(OC)n1 [Example 006-557, 6-(((1R,2S)-2-amino-1-(4-fluorophenyl)propyl)amino)-2-((2,6-dimethoxypyridin-4-yl)amino)-5-fluoronicotinamide]	130 to 200	< 10
NC(=O)c1cc(F)c(NC2CCCCC2N)nc1Nc1ccc2c(cnn2CC(F)F)c1 (centres unmarked) [Example 002-187]	< 65	< 10
CC[C@@H](Nc1nc(Nc2ccc3c(c2)c(C2CC2)nn3CC)c(C(N)=O)cc1F)[C@H](C)N [Example 006-551, 6-(((2S,3R)-2-aminopentan-3-yl)amino)-2-((3-cyclopropyl-1-ethyl-1H-indazol-5-yl)amino)-5-fluoronicotinamide]	130 to 200	< 10
COc1ccc2cc(Nc3nc(N[C@@H]4CCCC[C@@H]4N)c(F)cc3C(N)=O)cnc2c1 (relative stereo) [Example 004-128, 6-(cis-2-aminocyclohexylamino)-5-fluoro-2-((7-methoxyquinolin-3-yl)amino)nicotinamide]	65 to 130	< 10
CC[C@@H](Nc1nc(Nc2ccc3c(c2)c(C)nn3CC(F)F)c(C(N)=O)cc1F)[C@H](C)N [Example 006-526, 6-(((2S,3R)-2-aminopentan-3-yl)amino)-2-((1-(2,2-difluoroethyl)-3-methyl-1H-indazol-5-yl)amino)-5-fluoronicotinamide]	< 65	< 10
CCCC[C@@H](Nc1nc(Nc2ccc3c(cnn3CCOC)c2)c(C(N)=O)cc1F)[C@H](C)N [Example 006-389, 6-(((2S,3R)-2-aminoheptane-3-yl)amino)-5-fluoro-2-((1-(2-methoxyethyl)-1H-indazol-5-yl)amino)nicotinamide]	65 to 130	< 10
